From patent US5140014A (Abbott Laboratories, priority 1989, dated 1992)
Read-outs that look alike come from different tables or passages of the source.

Experiments:
Assay in all cases: in vitro antibacterial activity, agar dilution method (MIC)
Type in all cases: cell-based
Pseudomonas Cepacia = settings: Burkholderia cepacia; strain 296I; BHI agar, 20-24 hours; read-out: MIC
Method: (§1) Compounds 1 to 8 were evaluated for antibacterial activity by the agar dilution method to determine the degree of in vitro susceptibility of aerobic microorganisms to antimicrobial agents. The test medium was Brain Heart Infusion (BHI) agar. The antibacterial agent was dissolved at a concentration of 2,000 ug/mL. Test plates were then prepared, usually 12 two-fold dilutions. After adding the sample to the plates, 10 mL of cooled BHI agar medium was added to each plate. The organisms were grown overnight in BHI broth (Difco) in a 35°-37° C. incubator.
(§2) On the day of testing, the bacterial suspensions were diluted 1:100 in sterile distilled water, except for a few slow-growing organisms (usually Micrococcus and Streptococcus) which were diluted 1:10. The plate was then inoculated with approximately 10^4 organisms. This was incubated in a 35°-37° C. incubator for 20-24 hours. Thereafter, the plates were read to determine the minimum inhibitory concentration (MIC) defined as the lowest concentration of drug yielding no growth on the plate, a slight haze, or sparsely isolated colonies on the inoculum spot as compared to the growth control.

Escherichia Coli = settings: Escherichia coli, BHI agar, 20-24 hours, read-out: MIC
Method: as §1, §2

Micrococcus Luteus = settings: Micrococcus luteus, ATCC4698, strain ATCC 4698; BHI agar, 20-24 hours; read-out: MIC
Method: (§3) The test medium was Brain Heart Infusion (BHI) agar. The antibacterial agent was dissolved at a concentration of 2,000 ug/mL. Test plates were then prepared, usually 12 two-fold dilutions. After adding the sample to the plates, 10 mL of cooled BHI agar medium was added to each plate. The organisms were grown overnight in BHI broth (Difco) in a 35°-37° C. incubator.
as §2

Providencia Stuartii = settings: Providencia stuartii; strain CMX 640; BHI agar, 20-24 hours; read-out: MIC
Method: as §3, §2

Streptococcus Pyogenes = settings: Streptococcus pyogenes, BHI agar, 20-24 hours, read-out: MIC
Method: as §3, §2

Haemophilus Influenzae = settings: Haemophilus influenzae, BHI agar, 20-24 hours
Method: as §3, §2

Staphylococcus Aureus = settings: Staphylococcus aureus
Method: as §3, §2

Enterococcus Faecium = settings: Enterococcus faecium, ATCC8043, strain ATCC 8043; BHI agar, 20-24 hours; read-out: MIC
Method: as §3, §2

Acinetobacter Sp = settings: Acinetobacter, strain CMX 669; BHI agar, 20-24 hours; read-out: MIC
Method: as §3, §2

Streptococcus Agalactiae = settings: Streptococcus agalactiae, strain CMX 508; BHI agar, 20-24 hours; read-out: MIC
Method: as §3, §2

[1] = tested on: Staphylococcus Epidermidis; settings: Staphylococcus epidermidis, strain 3519; BHI agar, 20-24 hours; read-out: MIC
Method: as §3, §2

Pseudomonas Aeruginosa = settings: Pseudomonas aeruginosa, BHI agar, 20-24 hours, read-out: MIC
Method: as §3, §2

Klebsiella Pneumoniae = settings: Klebsiella pneumoniae, ATCC8045, strain ATCC 8045; BHI agar, 20-24 hours; read-out: MIC
Method: as §3, §2

Enterobacter Aerogenes = settings: Klebsiella aerogenes, ATCC13048, strain ATCC 13048; BHI agar, 20-24 hours; read-out: MIC
Method: as §3, §2

Measured: MIC

CC[C@H]1OC(=O)C[C@@H](O)[C@H](C)[C@@H](O[C@@H]2O[C@H](C)C[C@H](N(C)C)[C@H]2O)[C@@H](CC=O)C[C@@H](C)C(=O)/C=C/[C@]2(C)O[C@H]2[C@@H]1C [Rosaramicin, 5-O-(4'-deoxy-mycaminosyl)-12,13-epoxy-23-deoxy-tylonide, reference compound]
0.1 µg/mL: Micrococcus Luteus | Streptococcus Pyogenes; strain EES61
100 µg/mL: Providencia Stuartii | Pseudomonas Aeruginosa; strain A5007
0.39 µg/mL: Streptococcus Pyogenes; strain 2548 INDUC | Staphylococcus Aureus; ATCC6538P | Staphylococcus Aureus; NCTC10649, strain NCTC 10649, BHI agar, 20-24 hours, read-out: MIC | Staphylococcus Aureus; strain 45, BHI agar, 20-24 hours, read-out: MIC | Staphylococcus Aureus; strain 45 RAR2, BHI agar, 20-24 hours, read-out: MIC | Staphylococcus Aureus; strain 642A, BHI agar, 20-24 hours, read-out: MIC | Staphylococcus Aureus; strain CMX 553, BHI agar, 20-24 hours, read-out: MIC | Enterococcus Faecium | [1]
12.5 µg/mL: Escherichia Coli; strain DC-2 | Escherichia Coli; strain JUHL | Acinetobacter Sp | Klebsiella Pneumoniae
0.78 µg/mL: Staphylococcus Aureus; strain A5177, BHI agar, 20-24 hours, read-out: MIC | Pseudomonas Aeruginosa; strain K799/61
25 µg/mL: Pseudomonas Cepacia | Escherichia Coli; strain KNK 437 | Pseudomonas Aeruginosa; strain K799/WT | Enterobacter Aerogenes
6.2 µg/mL: Escherichia Coli; strain H560
> 100 µg/mL: Streptococcus Pyogenes; strain 930 CONST
0.2 µg/mL: Escherichia Coli; strain SS | Streptococcus Agalactiae
0.5 µg/mL: Haemophilus Influenzae; ATCC10211, strain ATCC 10211, read-out: MIC | Haemophilus Influenzae; ATCC43095, strain ATCC 43095, read-out: MIC | Haemophilus Influenzae; strain 519A, read-out: MIC | Haemophilus Influenzae; strain 588A, read-out: MIC | Haemophilus Influenzae; strain 747C, read-out: MIC | Haemophilus Influenzae; strain 1435, read-out: MIC | Haemophilus Influenzae; strain DILL AMP R, read-out: MIC | Haemophilus Influenzae; strain SOL AMP R, read-out: MIC | Haemophilus Influenzae; strain SPK AMP R, read-out: MIC
50 µg/mL: Pseudomonas Aeruginosa; strain BMH10
1 µg/mL: Haemophilus Influenzae; ATCC9795, strain ATCC 9795 | Haemophilus Influenzae; ATCC19418, strain ATCC 19418 | Haemophilus Influenzae; strain 503B | Haemophilus Influenzae; strain 504 | Haemophilus Influenzae; strain 566A | Haemophilus Influenzae; strain 632A | Haemophilus Influenzae; strain 667A | Haemophilus Influenzae; strain 751
0.12 µg/mL: Haemophilus Influenzae; strain 1177, read-out: MIC
